Test results published in paper PMC10753699, “Synthesis of Some New 1,3,4-Oxadiazole Derivatives and Evaluation of Their Anticancer Activity” (ACS Omega, 2023).

Experiments:
[1] = system: L929 murine fibroblast cell line; assay: MTT cell viability / cytotoxicity on L929 (healthy cells); assay type: cell-based, mouse; details: Mus musculus, L929, L929 healthy cell line, mean ± S.D. of three determinations
Protocol: (§1) In 75 cm^2 sterile plastic tissue culture flasks, the human lung adenocarcinoma A549 and the mouse fibroblast L929 cell lines were cultured in 90% RPMI (Sigma, Deisenhofen, Germany) media supplemented with 10% (v/v) FBS (Gibco, Paisley, UK) and adherent monolayers of penicillin/streptomycin (100 units/mL) from Gibco, Paisley, UK. These cells were cultured at 37 °C in an environment that was humidified and contained 5% CO2.
(§2) The MTT (3-(4,5-dimethylthiazol-2-yl)-2,5-diphenyltetrazolium bromide) method was applicated to assess the cell viability of L929, C6 and A549 cell lines against the tested compounds according to the reported data.[51] In 96-well plates with a flat bottom, the A549, C6, and L929 cells were cultivated at a density of 5 × 10^3 cells per well. […] After addition, they were incubated for a full day in culture wells. Following the incubation period, 20 μL of phosphate-buffered saline (PBS) (Gibco, Paisley, UK) containing 5 mg/mL MTT powder (Sigma-Aldrich, St. Louis, MO, USA) was added to each well. The medium was taken out of the plate and replaced with 100 μL of DMSO in each well to dissolve the dye. This was left for 2 to 4 h under the same conditions and then left for 10 min. At the conclusion of the procedure, purple formazan, the reduction product of the MTT agent, was formed by the mitochondrial dehydrogenase enzyme of intact cells. A microtiter plate reader (BioTek Plate Reader, Winooski, VT, USA) was used to measure the cells at 540 nm. Cell viability was measured as a percentage and contrasted with that of the cells in the control group. Half-maximal inhibitory concentration 50 (IC50) values were determined by repeating each concentration in three wells and identifying the drug concentrations that decreased the absorbance to 50% of control values. The medium control served as the basis for calculating the percentage of viable cells.

[2] = system: A549 cells; assay: Early/late apoptosis by Annexin V-FITC/PI flow cytometry; assay type: cell-based, human; details: A549, IC50 dose, 24 h incubation
Protocol: Phosphatidylserine externalization, a marker of early apoptosis, was assessed using the FITC Annexin V apoptosis detection kit (BD Pharmingen, San Jose, CA, USA) on a BD FACSAria flow cytometer. Following their collection, the A549 and L929 cells were twice washed in ice-cold PBS before being resuspended in 100 μL of binding buffer. The cells were treated with a volume of 5 μL (5 μg/mL) of Annexin V-FITC and PI, and they were incubated for 15 min at room temperature (20–25 °C) in the dark. Following that, 400 μL of binding buffer was added to the combination samples, and FACSDiva version 6.1.1 was used to analyze the samples on a BD FACSAria flow cytometer.

[3] = system: A549 cells; assay: Mitochondrial membrane depolarization (JC-1, flow cytometry); assay type: cell-based, human; details: A549, IC50 concentration, 24 h
Protocol: Staining of cells with JC-1 was realized according to the manufacturer’s recommendations of BD, Pharmingen Flow cytometry kit. […] For this purpose, cells were seeded at an optimal density in six-well plates (not exceeding 1 × 10^6/mL cells). The cells were then incubated with the substances to be tested at the appropriate concentration and time. After the treatment, each cell suspension was taken into a 15 mL polystyrene centrifuge tube and the cells were centrifuged at 400g for 5 min and removed from the supernatant. 0.5 mL of a freshly prepared working solution was added to each pellet, and the solution was vortexed. The test cells were soaked in a JC-1 working solution at 37 °C for 10–15 min, and the cells were washed twice. In the first wash, 2 mL of 1X assay buffer was added and the cells were suspended sensitively. Then, the cells were centrifuged at 400g for 5 min and the supernatant was removed, carefully. In the second wash, 1 mL of 1X assay buffer was added and vortexed. After the cells were centrifuged at 400g for 5 min, each cell pellet was suspended in 0.5 mL 1X assay buffer and vortexed. Finally, the cell was analyzed by a flow cytometer.

[4] = system: A549 human lung cancer cell line; assay: MTT cell viability / cytotoxicity on A549; assay type: cell-based; details: for IC50: Homo sapiens, A549, A549 cell line, MTT, mean ± S.D. of three determinations
Protocol: as §1, §2

[5] = target: T1, MMP-9 enzyme (Homo sapiens, UniProt P14780); assay: MMP-9 colorimetric inhibition assay; assay type: biochemical; details: for inhibition at 100 µg/mL: at 100 μg/mL
T1 construct: purchased EnzoLife Sciences Inc. (Farmingdale, New York, NY, USA)
From the text: As described in our previous study,[36] the method was applied in exactly the same manner. EnzoLife Sciences Inc. provided MMP-9 colorimetric kits (Farmingdale, New York, NY, USA). The MMP Colorimetric Drug Discovery Kits are a comprehensive test technique that uses a thiopeptide (Ac-PLG-[2-mercapto-4-methyl-pentanoyl]-LG-OC2H5) as a chromogenic substrate to screen MMP inhibitors. Using a microplate reader (BioTek, PowerWave, Gen5 software, Winooski, VT, USA) at room temperature, the UV absorbance was measured at 412 nm. NNGH was employed as an inhibitor of control.

[6] = system: C6 rat glioma cell line; assay: MTT cell viability / cytotoxicity on C6; assay type: cell-based; details: mean ± S.D. of three determinations
Protocol: as §2

[7] = system: caspase-3; assay: Caspase-3 activation in A549 cells; assay type: cell-based, human; details: A549, IC50 of the compounds, 24 h
Protocol: The Spectrofluorometric Caspase-3 Assay kit (BD Pharmingen, Franklin Lakes, NJ) was used to assess the activation of caspase-3. The purpose of the kit was to measure the early indicator of cells going through apoptosis, known as caspase-3 or the DEVD-cleaving activity. First, 1 × 10^6 cells/mL of cells were resuspended in cold cell lysis buffer, rinsed with PBS, and then allowed to sit on ice for 30 min. […] In each reaction, a well containing 0.2 mL of 1 x HEPES buffer was filled with […] of reconstituted AcDEVD-AMC, a synthetic tetrapeptide fluorogenic substrate for caspase-3 activity. Each reaction/well received 20 μL of cell lysate. The reaction mixtures were incubated at 37 °C for 1 h. Using a microplate reader (Perkin-Elmer/Victor/X3) with an excitation wavelength of 380 nm and an emission wavelength of 460 nm, the amount of AMC released from Ac-DEVD-AMC was quantified. When compared with controls, apoptotic cell lysates containing active caspase-3 produced a significant emission. […] For all doses, duplicate wells were used. This experiment was performed according to Yurttaş et al.[52]

[8] = system: A549 cells; assay: Cell cycle analysis by flow cytometry; assay type: cell-based, human; details: A549, 24 h incubation
Protocol: Following a 24 h incubation period with the compounds, a cell cycle analysis measurement methodology was implemented in compliance with the manufacturer’s instructions for A549 cells (BD, Biosciences). Next, the cells were immersed in citrate buffer for a short while. At room temperature, the cells were centrifuged for 5 min at 400 g. After the supernatant was decanted, 250 μL of solution A was added to the pellet, and it was allowed to sit at room temperature for 10 min. Solution B (200 μL) was then added, carefully mixed, and incubated at room temperature for 10 min. Solution C (200 μL) was then added. It was gently mixed, allowed to stand at 4 °C for 10 min in the dark, and then examined using BD Bioscience’s MODFID software on a flow cytometer. This method was applied in our previous study.[54]

T1 sequence (P14780 107-444 limits assumed): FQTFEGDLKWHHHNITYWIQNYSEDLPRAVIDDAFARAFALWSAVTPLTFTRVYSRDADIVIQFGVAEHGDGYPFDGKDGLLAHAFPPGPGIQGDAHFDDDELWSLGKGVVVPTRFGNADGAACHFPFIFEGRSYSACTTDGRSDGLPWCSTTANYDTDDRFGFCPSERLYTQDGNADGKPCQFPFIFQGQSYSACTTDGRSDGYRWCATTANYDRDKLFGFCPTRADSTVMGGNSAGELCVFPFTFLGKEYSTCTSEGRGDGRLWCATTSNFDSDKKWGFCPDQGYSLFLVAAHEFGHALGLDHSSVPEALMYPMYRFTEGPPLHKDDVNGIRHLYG

In the case of `CC(=O)Nc1ccccc1OCc1nnc(SCC(=O)Nc2ccccc2)o1` [Compound 4h, 2-[(5-((2-Acetamidophenoxy)methyl)-1,3,4-oxadiazol-2-yl)thio]-N-phenylacetamide], the IC50 [1] is reported as 31.4 ± 1.76 µM, the “Q1: necrotic cells” value [2] is reported as 26.94% and the “Q2 + Q4: early and late apoptotic cells” value [2] is reported as 19.20%. For the same compound, the “Q2: late apoptotic cells” value [2] was 7.28%, the “Q3: viable cells” value [2] was 53.94% and the “Q4: early apoptotic cells” value [2] was 11.84%. For the same compound, the melting point was 188 to 191 °C, the “mitochondrial membrane depolarization %” value [3] was 8.75% and the “mitochondrial membrane polarization %” value [3] was 90.74%. For the same compound, the IC50 [4] was less than 0.14 µM, the IC50 [5] was 1.65 ± 0.21 µM and the inhibition at 100 µg/mL [5] was greater than 75%. For the same compound, the IC50 [6] was greater than 1000 µM, the “% (+): caspase-3 activity positive cells” value [7] was 2.7% and the “% (−): caspase-3 activity negative cells” value [7] was 97.5%. The “% S” value [8] was 0.0%, the G0/G1% [8] was 89.66% and the G2/M % [8] was 10.34%.

With `CC(=O)Nc1ccccc1OCc1nnc(SCC(=O)Nc2nc3ccc(C)cc3s2)o1` [Compound 4e, 2-[(5-((2-Acetamidophenoxy)methyl)-1,3,4-oxadiazol-2-yl)thio]-N-(6-methylbenzothiazol-2-yl)acetamide] the IC50 [1] was 29.9 ± 3.01 µM, the melting point was 213 to 216 °C and the IC50 [4] was 43 ± 2.79 µM. The “SI (L929/A549)” value ([4]; selectivity index = IC50 on normal cells/IC50 on cancer cells) was 0.69, the IC50 [5] was 19.5 ± 3.18 µM and the inhibition at 100 µg/mL [5] was greater than 50%. For the same compound, the IC50 [6] was 458 ± 28.2 µM.

For `CC(=O)Nc1ccccc1OCc1nnc(SCC(=O)Nc2nc3ccc(F)cc3s2)o1` [Compound 4f, 2-[(5-((2-Acetamidophenoxy)methyl)-1,3,4-oxadiazol-2-yl)thio]-N-(6-fluorobenzothiazol-2-yl)acetamide], the IC50 [1] was 19.4 ± 0.89 µM, the “Q1: necrotic cells” value [2] was 26.25% and the “Q2: late apoptotic cells” value [2] was 6.7%. For the same compound, the “Q3: viable cells” value [2] was 58.53%, the “Q4: early apoptotic cells” value [2] was 8.51% and the melting point was 207 to 209 °C. For the same compound, the “mitochondrial membrane depolarization %” value [3] was 13.03%, the “mitochondrial membrane polarization %” value [3] was 85.97% and the IC50 [4] was 6.62 ± 0.32 µM. For the same compound, the IC50 [5] was 24.5 ± 2.12 µM, the inhibition at 100 µg/mL [5] was greater than 75% and the IC50 [6] was 13 ± 3.72 µM. The “% (+): caspase-3 activity positive cells” value [7] was 3.4%, the “% (−): caspase-3 activity negative cells” value [7] was 97.1% and the “% S” value [8] was 0.0%. It also gave a G0/G1% [8] of 63.53% and a G2/M % [8] of 36.47%.
